Assay results from patent US20120136066A1, “Glomerulonephritis Treatment” (AVEXXIN AS, priority 2009, published 2012).

How the values were obtained:
mesangial cells = assay: [3H]thymidine incorporation in mesangial cells (proliferation); assay type: cell-based, rat; details: 24 h; ATP 100 μM, insuline 100 ng/ml or IGF 50 ng/ml, FIGS. 5A and 5B
Description: Quiescent cells were stimulated for 24 h with vehicle (DMEM), or 100 μM of ATP in the absence (−) or presence of the indicated concentrations of AVX001 or AVX002, in the presence of [^3H]thymidine. • (B) Cells were stimulated for 24 h with insuline (100 ng/ml) or IGF (50 ng/ml) in the absence (−) or presence of 10 μM of AVX001 or AVX002, in the presence of [^3H]thymidine. Thymidine incorporated into DNA was determined and results are expressed as % of control and are means±S.D. (n=3). Glomerulonephritis is characterized in a first early phase by increased mesangial apoptosis which in a second phase is replaced by an opposite event, i.e. hyperproliferation of mesangial cells. Many previous studies have shown that quiescent mesangial cells in culture can re-enter the cell cycle when exposed to various growth factors, including PDGF, insulin, insulin-like growth factor (IGF), or extracellular nucleotides such as ATP and UTP. […] In the presence of either AKH217 or AVX002, agonist-stimulated [^3H]thymidine incorporation is reduced (FIGS. 5A and 5B). Similar data were also obtained when cells were stimulated with PDGF.

rat iNOS promoter = assay: iNOS promoter activity, luciferase reporter gene assay; assay type: cell-based; details: IL-1β (1 nM), 10 μM compound, FIG. 4C
Description: (§1) Quiescent cells were stimulated with either vehicle (DMEM), IL-1β (1 nM), in the absence (−) or presence of the indicated concentrations (in μM) of AVX001 and AVX002. EtOH, vehicle control.(A) Cells were taken for protein extraction and equal amount of protein were separated by SDS-PAGE and subjected to a Western blot analysis using a polyclonal antibody against iNOS at a dilution of 1:2000. Data are representative of at least 3 independent experiments giving similar results. (B). Cells were taken for RNA extraction and subjected to quantitative PCR analysis of rat iNOS and 18 S RNA. ΔΔCt values were calculated and results are expressed as % of maximal IL-1β response and are means±S.D (n=3). • (C) Cells were transfected with the rat iNOS promoter construct plus a plasmid coding for the Renilla luciferase. After transfection, cells were stimulated with vehicle (−), IL-1β (1 nM), or IL-1β plus 10 μM of AVX001. iNOS promoter activity was calculated and results are expressed as relative luciferase units (RLU) and are means±S.D. (n=3).
(§2) To see whether this effect is due to altered gene transcription of iNOS, luciferase reporter gene assays were performed to measure iNOS promoter activity. A 4.5 kb fragment of the rat iNOS promoter was kindly provided by Dr. K. F. Beck (pharmazentrum frankfurt).

[1] = test system: rat renal mesangial cells; assay: cytokine-stimulated NO formation in mesangial cells (Griess Reaction assay); assay type: cell-based; details: IL-1β (1 nM), FIG. 3
Description: Quiescent cells were stimulated with either DMEM (−), IL-1β (1 nM; +), in the absence or presence of the indicated concentrations of AKH-217, AVX002, or AACOCF3. Supernatants were collected and taken for nitric oxide (NO) quantification by using a Griess Reaction assay. Data are expressed as μM of NO in the supernatant and are means±S.D. (n=3).
as §2

iNOS = iNOS protein expression, Western blot; assay type: cell-based, rat; details: mesangial cells, IL-1β (1 nM), FIG. 4A
Description: as §1, §2

rat IIA-sPLA2 promoter = assay: sPLA2 promoter activity, luciferase reporter gene assay; assay type: cell-based; details: IL-1β (1 nM), 24 h, 10 μM compound, FIG. 2C
Description: (§3) Quiescent cells were stimulated with either DMEM (−), or IL-1β (1 nM) in the absence (−) or presence of AKH-217 (etOH), vehicle control. • (A) Supernatants were taken for protein precipitation and precipitated proteins were separated by SDS-PAGE and subjected to a Western blot analysis using a monoclonal antibody against rat sPLA2. […] Cells were taken for RNA extraction and subjected to quantitative PCR analysis of rat IIA-sPLA2 and 18 S RNA. ΔΔCt values were calculated and results are expressed as % of maximal IL-1β-stimulated response and are means±S.D. (n=3). • (C) Cells were transfected with the sPLA2 promoter construct plus a plasmid coding for the Renilla luciferase. After transfection, cells were stimulated for 24 h with vehicle (−), IL-1β (1 nM), or IL-1β plus 10 μM of AKH-217. sPLA2 promoter activity was calculated and results are expressed as relative luciferase units (RLU) and are means±S.D. (n=3).
It has been previously shown that the cytokine-induced PGE2 formation in mesangial cells involves both sPLA2 and cPLA2 activation (Pfeilschifter et al., 1993), we then investigated the effect of the inhibitors above on sPLA2 protein and mRNA expressions. […] This effect on sPLA2 mRNA expression was due to a reducing effect on gene transcription. This was shown by a luciferase reporter gene assay that reflected sPLA2 promoter activity. […]

phospho-p65 (NFκB) = assay: NFκB activation, Western blot of phospho-p65; assay type: cell-based, rat; details: IL-1β (2 nM) 30 min, 10 μM compound pretreated 2 h, FIG. 6
Description: Quiescent cells were stimulated for 30 min with either vehicle (DMEM), or IL-1β (2 nM) in the absence (−) or presence (+) of AVX001 or AVX002 (10 μM, pretreated 2 h). Thereafter, cell lysates were separated by SDS-PAGE and subjected to a Western blot analysis using a polyclonal antibody against phospho-p65 (NFκB) (upper panel), HuR as a loading control (middle panel), and IκB (lower panel). Data in FIG. 6A show duplicates of one representative experiments. FIGS. 6B and C show the densitometric evaluation of NFκB and IκB bands.
NFκB activation was measured by Western blot analyses by detecting the amount of phospho-p65 which represents the active transcription factor subunit.

IIA-sPLA2 mRNA = IIA-sPLA2 mRNA expression, quantitative PCR; assay type: cell-based, rat; details: mesangial cells, IL-1β (1 nM), FIG. 2B
Description: as §3
(§4) It has been previously shown that the cytokine-induced PGE2 formation in mesangial cells involves both sPLA2 and cPLA2 activation (Pfeilschifter et al., 1993), we then investigated the effect of the inhibitors above on sPLA2 protein and mRNA expressions. […] This effect on sPLA2 mRNA expression was due to a reducing effect on gene transcription. This was shown by a luciferase reporter gene assay that reflected sPLA2 promoter activity.

IIA-sPLA2 = IIA-sPLA2 protein expression and secretion, Western blot of supernatants; assay type: cell-based, rat; details: mesangial cells, IL-1β (1 nM), FIG. 2A
Description: as §3, §4

| IL-1β-stimulated iNOS promoter activity (rat iNOS promoter) | IL-1β-stimulated sPLA2 promoter activity (rat IIA-sPLA2 promoter) | Compound | agonist-stimulated [3H]thymidine incorporation (mesangial cells) | IL-1β-stimulated NO formation [1] | protein expression of iNOS induced by IL-1β (iNOS) | IL-1β-induced increase of phospho-p65 (phospho-p65 (NFκB)) | IIA-sPLA2 mRNA expression (IIA-sPLA2 mRNA) | IIA-sPLA2 protein expression and secretion (IIA-sPLA2) |
| --- | --- | --- | --- | --- | --- | --- | --- | --- |
| completely lost | completely reduced | CC/C=C\C/C=C\C/C=C\C/C=C\CC/C=C/CSCC(=O)C(F)(F)F [AKH-217] | reduced | reduced in a dose-dependent manner | down-regulated | reduced | reduce | reduce |
| – | – | CC/C=C\C/C=C\C/C=C\C/C=C\C/C=C\CCSCC(=O)C(F)(F)F [AVX002] | reduced | reduced in a dose-dependent manner | down-regulated | – | – | – |
